Ends that are not written are not given here.
Legend:
[1] = system: Human prostate tumour cells (PPC-1); assay: Viable cell numbers of prostate tumour cells by MTT assay; assay type: cell-based; conditions: PPC-1 cells, FIG. 3; for numbers of viable prostate cells remaining in culture: cytotoxic alone at 10^-6, 10^-8 or 10^-10 M for 24 hours
From the text: ** OVCA 433 was established from ascites obtained from a patient with advanced serous ovarian adenocarcinoma (Tsa, S W et al., (1995) Exp. Cell Res. 218: 499-507) and HEY was derived from a xenograft of a peritoneal deposit of a cystoadeonocarcinoma of the ovary (Buick, R. N. et al., (1985) Cancer Research 45: 3668-3676). PPC-1 cells were originally derived from a human prostate tumour and were obtained from the laboratory of Dr. J. Nelson, University of Pittsburgh).
(§1) In vitro studies in ovarian cells: Human ovarian tumour cell lines (OVCA 433 and HEY) were maintained in culture media containing serum until sufficient numbers were available for experimentation. At this time the cells were transferred into media without serum. After 24 hours of serum starvation, cells were treated with either Compound (I) (1 μM) or paclitaxel (60 nM), or Compound (I)+paclitaxel. Following treatment for 24 hours, apoptosis was measured by a standard cell detection ELISA Plus kit (Boehringer Manheim). In vitro studies in prostate cells: Human prostate tumour cells (PPC-1) were maintained in culture medium containing serum until sufficient numbers were available for experimentation. After this time cells were transferred into media without serum. After 23 hours of serum starvation cells were treated with either endothelin 1 (10^−7M) or endothelin 1+Compound (I) at 10^−7M. An additional group of cells received vehicle control alone. One hour later cells were treated with paclitaxel or docetaxel at either 10^−6M, 10^−8M or 10^−10M for 24 hours. At the end of this 24 hour period, viable cell numbers were measured by a standard MTT assay (Mossman, J Inmunol Methods. (1983) 65, 55-63). In vivo studies: Athymic mice were given subcutaneous injections of 1.5×10^6 HEY cells into the flank. After 7 days, when established tumours had formed, mice were randomized to 4 treatment groups with 10 mice in each group. One group was treated with Compound (I) given by daily intraperitoneal injections (10 mg/kg/day) for 21 days. A second group received intravenous injections of paclitaxel (20 mg/kg) every 4 days for 3 doses. A third group received both paclitaxel and Compound (I) and a fourth group was given injections in the same way using vehicle alone. The experiments were replicated three times.

[2] = system: HEY ovarian cell xenografts; assay: Growth of subcutaneous HEY ovarian carcinoma xenografts in athymic mice; assay type: in vivo; conditions: Compound (I) 10 mg/kg/day i.p. for 21 days, paclitaxel 20 mg/kg i.v. every 4 days for 3 doses, alone or both, FIG. 2
Description: as §1, with “After 7 days, when established tumours had formed, mice were randomized to 4 treatment groups with 10 mice in each group. One group was treated with Compound (I) given by daily intraperitoneal injections (10 mg/kg/day) for 21 days. A second group received intravenous injections of paclitaxel (20 mg/kg) every 4 days for 3 doses. A third group received both paclitaxel and Compound (I) and a fourth group was given injections in the same way using vehicle alone. The experiments were replicated three times.” left out

[3] = system: Human ovarian tumour cell lines (OVCA 433 and HEY); assay: Apoptosis in serum-starved ovarian tumour cell lines, cell detection ELISA Plus kit; assay type: cell-based; conditions: HEY and OVCA 433 cells, 24 h serum starvation, 24 h treatment; Compound (I) 1 μM, paclitaxel 60 nM, alone or combined; FIG. 1
From the text: To evaluate the effect of Compound (I) in combination with an anti-mitotic cytotoxic agent (paclitaxel) on the growth of various carcinoma cells, we utilised two established human ovarian cell lines (HEY and OVCA 433**) which express functional endothelin A (ETa) receptors and secrete high levels of endothelin-1 (ET-1). ET-1 is an anti-apoptotic factor in many cell types, having this effect via ETa receptors. ** OVCA 433 was established from ascites obtained from a patient with advanced serous ovarian adenocarcinoma (Tsa, S W et al., (1995) Exp. Cell Res. 218: 499-507) and HEY was derived from a xenograft of a peritoneal deposit of a cystoadeonocarcinoma of the ovary (Buick, R. N. et al., (1985) Cancer Research 45: 3668-3676). PPC-1 cells were originally derived from a human prostate tumour and were obtained from the laboratory of Dr. J. Nelson, University of Pittsburgh). In vitro studies in ovarian cells: Human ovarian tumour cell lines (OVCA 433 and HEY) were maintained in culture media containing serum until sufficient numbers were available for experimentation. […] Following treatment for 24 hours, apoptosis was measured by a standard cell detection ELISA Plus kit (Boehringer Manheim). […] At the end of this 24 hour period, viable cell numbers were measured by a standard MTT assay (Mossman, J Inmunol Methods. (1983) 65, 55-63). […]

CC(=O)O[C@@]12CO[C@@H]1C[C@H](O)[C@@]1(C)C(=O)[C@H](O)C3=C(C)[C@@H](OC(=O)[C@H](O)[C@@H](NC(=O)OC(C)(C)C)c4ccccc4)C[C@@](O)([C@@H](OC(=O)c4ccccc4)[C@H]21)C3(C)C [docetaxel, Docetaxel]
numbers of viable prostate cells remaining in culture [1]: significantly reduced

CC(=O)O[C@H]1C(=O)[C@@]2(C)[C@H]([C@H](OC(=O)c3ccccc3)[C@]3(O)C[C@H](OC(=O)[C@H](O)[C@@H](NC(=O)c4ccccc4)c4ccccc4)C(C)=C1C3(C)C)[C@]1(OC(C)=O)CO[C@@H]1C[C@@H]2O [paclitaxel, Paclitaxel]
inhibition of HEY ovarian cell xenografts (tumour growth) [2]: degree of inhibition was similar
numbers of viable prostate cells remaining in culture [1]: significantly reduced
effect on apoptosis [3]: no statistically significant effects

COc1nc(C)cnc1NS(=O)(=O)c1cccnc1-c1ccc(-c2nnco2)cc1 [Compound (I), N-(3-methoxy-5-methylpyrazin-2-yl)-2-(4-[1,3,4-oxadiazol-2-yl]phenyl)pyridine-3-sulphonamide]
inhibition of HEY ovarian cell xenografts (tumour growth) [2]: significant inhibition
effect on the endothelin-1 reversal of cytotoxic-induced reduction in viable cell number ([1]; endothelin 1 10^-7 M + Compound (I) 10^-7 M, one hour before paclitaxel or docetaxel): blocked
effect on apoptosis [3]: no statistically significant effects

endothelin-1 (CSCSSLMDKECVYFCHLDIIW; ends and bridges not checked; cysteine pairing not given here; UniProt P05305 53-73, looked up) [endogenous 21 amino acid peptide, anti-apoptotic factor acting via ETa receptors]
effect on the paclitaxel- or docetaxel-induced reduction in viable cell number ([1]; endothelin 1 10^-7 M given one hour before paclitaxel or docetaxel): reversed
